Measurements reported in publication PMC6891286, “Towards the Development of an In vivo Chemical Probe for Cyclin G Associated Kinase (GAK)” (Molecules, 2019).

Legend:
Assay in all cases: KINOMEscan
Assay type in all cases: binding
[1] = biological target: T1, CDC2L2 (Homo sapiens, UniProt Q9UQ88); conditions: 35 at 1 µM; read-out: % inhibition
T1 construct: purchased Eurofins DiscoverX (KINOMEscan)
Method: (§1) KinomeScan Assay on 35 was performed as previously described at EuroFins DiscoverX (Fremont, CA, USA).

[2] = biological target: T2, KIT(D816H) (Homo sapiens, UniProt P10721, D816H); conditions: 35 at 1 µM; read-out: % inhibition
T2 construct: purchased Eurofins DiscoverX (KINOMEscan)
Method: as §1

[3] = biological target: T3, DRAK1 (Homo sapiens, UniProt Q9UEE5); conditions: 35 at 1 µM; read-out: % inhibition
T3 construct: purchased Eurofins DiscoverX (KINOMEscan)
Method: as §1

[4] = biological target: T4, ASK2 (Homo sapiens, UniProt O95382); conditions: 35 at 1 µM; read-out: % inhibition
T4 construct: purchased Eurofins DiscoverX (KINOMEscan)
Method: as §1

[5] = biological target: T5, PCTK2 (Homo sapiens, UniProt Q00537); conditions: 35 at 1 µM; read-out: % inhibition
T5 construct: purchased Eurofins DiscoverX (KINOMEscan)
Method: as §1

[6] = biological target: T6, TIE1 (Homo sapiens, UniProt P35590); conditions: 35 at 1 µM; read-out: % inhibition
T6 construct: purchased Eurofins DiscoverX (KINOMEscan)
Method: as §1

[7] = biological target: T7, PKN2 (Homo sapiens, UniProt Q16513); conditions: 35 at 1 µM; read-out: % inhibition
T7 construct: purchased Eurofins DiscoverX (KINOMEscan)
Method: as §1

[8] = biological target: T8, FGFR2 (Homo sapiens, UniProt P21802); conditions: 35 at 1 µM; read-out: % inhibition
T8 construct: purchased Eurofins DiscoverX (KINOMEscan)
Method: as §1

[9] = biological target: T9, CSNK1A1L (Homo sapiens, UniProt Q8N752); conditions: 35 at 1 µM; read-out: % inhibition
T9 construct: purchased Eurofins DiscoverX (KINOMEscan)
Method: as §1

[10] = biological target: T10, PIP5K1A (Homo sapiens, UniProt Q99755); conditions: 35 at 1 µM; read-out: % inhibition
T10 construct: purchased Eurofins DiscoverX (KINOMEscan)
Method: as §1

[11] = biological target: T11, TNNI3K (Homo sapiens, UniProt Q59H18); conditions: 35 at 1 µM; read-out: % inhibition
T11 construct: purchased Eurofins DiscoverX (KINOMEscan)
Method: as §1

[12] = biological target: T12, TLK2 (Homo sapiens, UniProt Q86UE8); conditions: 35 at 1 µM; read-out: % inhibition
T12 construct: purchased Eurofins DiscoverX (KINOMEscan)
T12 sequence (Q86UE8 whole entry): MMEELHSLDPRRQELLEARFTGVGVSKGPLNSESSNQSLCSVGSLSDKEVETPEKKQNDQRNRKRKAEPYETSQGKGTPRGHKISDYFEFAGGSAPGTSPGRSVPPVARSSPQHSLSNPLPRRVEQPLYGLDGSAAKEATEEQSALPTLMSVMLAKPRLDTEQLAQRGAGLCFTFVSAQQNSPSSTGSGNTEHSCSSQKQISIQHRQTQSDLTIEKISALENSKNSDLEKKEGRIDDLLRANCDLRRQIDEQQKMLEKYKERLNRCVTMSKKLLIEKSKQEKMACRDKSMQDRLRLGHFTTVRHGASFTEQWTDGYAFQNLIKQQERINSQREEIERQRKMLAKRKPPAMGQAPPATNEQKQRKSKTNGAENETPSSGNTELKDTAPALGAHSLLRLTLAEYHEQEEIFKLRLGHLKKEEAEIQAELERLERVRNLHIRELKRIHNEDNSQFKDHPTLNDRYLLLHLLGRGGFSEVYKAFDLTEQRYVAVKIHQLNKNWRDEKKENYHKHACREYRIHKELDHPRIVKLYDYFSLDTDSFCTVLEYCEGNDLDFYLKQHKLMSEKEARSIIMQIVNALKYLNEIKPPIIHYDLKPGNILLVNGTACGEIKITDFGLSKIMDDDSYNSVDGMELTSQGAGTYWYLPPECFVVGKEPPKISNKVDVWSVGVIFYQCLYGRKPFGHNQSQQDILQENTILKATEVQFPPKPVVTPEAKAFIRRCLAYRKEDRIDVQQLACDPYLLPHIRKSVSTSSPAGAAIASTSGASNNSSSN
Method: as §1

[13] = biological target: T13, DYRK2 (Homo sapiens, UniProt Q92630); conditions: 35 at 1 µM; read-out: % inhibition
T13 construct: purchased Eurofins DiscoverX (KINOMEscan)
Method: as §1

[14] = biological target: T14, NEK7 (Homo sapiens, UniProt Q8TDX7); conditions: 35 at 1 µM; read-out: % inhibition
T14 construct: purchased Eurofins DiscoverX (KINOMEscan)
Method: as §1

[15] = biological target: T15, ADCK4 (Homo sapiens, UniProt Q96D53); conditions: 35 at 1 µM; read-out: % inhibition
T15 construct: purchased Eurofins DiscoverX (KINOMEscan)
Method: as §1

[16] = biological target: T16, FLT3-autoinhibited (Homo sapiens, UniProt P36888); conditions: 35 at 1 µM; read-out: % inhibition
T16 construct: purchased Eurofins DiscoverX (KINOMEscan)
Method: as §1

[17] = biological target: T17, LTK (Homo sapiens, UniProt P29376); conditions: 35 at 1 µM; read-out: % inhibition
T17 construct: purchased Eurofins DiscoverX (KINOMEscan)
Method: as §1

[18] = biological target: T18, CLK4 (Homo sapiens, UniProt Q9HAZ1); conditions: 35 at 1 µM; read-out: % inhibition
T18 construct: purchased Eurofins DiscoverX (KINOMEscan)
Method: as §1

[19] = biological target: T19, NEK5 (Homo sapiens, UniProt Q6P3R8); conditions: 35 at 1 µM; read-out: % inhibition
T19 construct: purchased Eurofins DiscoverX (KINOMEscan)
Method: as §1

[20] = biological target: T20, CAMK2A (Homo sapiens, UniProt Q9UQM7); conditions: 35 at 1 µM; read-out: % inhibition
T20 construct: purchased Eurofins DiscoverX (KINOMEscan)
Method: as §1

[21] = biological target: T21, MTOR (Homo sapiens, UniProt P42345); conditions: 35 at 1 µM; read-out: % inhibition
T21 construct: purchased Eurofins DiscoverX (KINOMEscan)
Method: as §1

[22] = biological target: T22, SGK (Homo sapiens, UniProt O00141); conditions: 35 at 1 µM; read-out: % inhibition
T22 construct: purchased Eurofins DiscoverX (KINOMEscan)
Method: as §1

[23] = biological target: T23, CSNK1G1 (Homo sapiens, UniProt Q9HCP0); conditions: 35 at 1 µM; read-out: % inhibition
T23 construct: purchased Eurofins DiscoverX (KINOMEscan)
T23 sequence (Q9HCP0 whole entry): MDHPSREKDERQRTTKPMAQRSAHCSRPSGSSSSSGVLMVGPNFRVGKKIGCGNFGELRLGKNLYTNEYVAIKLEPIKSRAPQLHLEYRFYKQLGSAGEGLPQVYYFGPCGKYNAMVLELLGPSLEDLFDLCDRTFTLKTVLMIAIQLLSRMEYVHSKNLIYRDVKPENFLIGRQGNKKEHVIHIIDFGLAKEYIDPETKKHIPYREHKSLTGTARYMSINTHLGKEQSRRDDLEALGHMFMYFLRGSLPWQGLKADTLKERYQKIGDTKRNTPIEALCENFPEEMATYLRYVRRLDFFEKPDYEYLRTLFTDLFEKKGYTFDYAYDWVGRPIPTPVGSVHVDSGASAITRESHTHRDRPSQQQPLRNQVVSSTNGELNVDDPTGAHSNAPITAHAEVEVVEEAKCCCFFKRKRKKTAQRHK
Method: as §1

[24] = biological target: T24, CAMK1D (Homo sapiens, UniProt Q8IU85); conditions: 35 at 1 µM; read-out: % inhibition
T24 construct: purchased Eurofins DiscoverX (KINOMEscan)
T24 sequence (Q8IU85 whole entry): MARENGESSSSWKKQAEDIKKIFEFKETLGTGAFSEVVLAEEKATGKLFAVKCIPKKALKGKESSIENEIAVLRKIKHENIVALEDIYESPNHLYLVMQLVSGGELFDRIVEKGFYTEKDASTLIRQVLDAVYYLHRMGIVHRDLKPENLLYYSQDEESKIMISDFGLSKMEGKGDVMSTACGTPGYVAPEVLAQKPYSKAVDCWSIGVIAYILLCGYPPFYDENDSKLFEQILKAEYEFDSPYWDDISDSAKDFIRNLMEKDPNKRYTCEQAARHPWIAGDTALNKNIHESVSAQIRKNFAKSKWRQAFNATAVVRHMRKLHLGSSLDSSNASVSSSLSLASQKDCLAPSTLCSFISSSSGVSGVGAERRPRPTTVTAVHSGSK
Method: as §1

[25] = biological target: T25, PRP4 (Homo sapiens, UniProt Q13523); conditions: 35 at 1 µM; read-out: % inhibition
T25 construct: purchased Eurofins DiscoverX (KINOMEscan)
Method: as §1

[26] = biological target: T26, GSK3A (Homo sapiens, UniProt P49840); conditions: 35 at 1 µM; read-out: % inhibition
T26 construct: purchased Eurofins DiscoverX (KINOMEscan)
Method: as §1

[27] = biological target: T27, MRCKB (Homo sapiens, UniProt Q9Y5S2); conditions: 35 at 1 µM; read-out: % inhibition
T27 construct: purchased Eurofins DiscoverX (KINOMEscan)
Method: as §1

[28] = biological target: T28, LKB1 (Homo sapiens, UniProt Q15831); conditions: 35 at 1 µM; read-out: % inhibition
T28 construct: purchased Eurofins DiscoverX (KINOMEscan)
Method: as §1

[29] = biological target: T29, CDK4-cyclinD3 (Homo sapiens, UniProt P11802); conditions: 35 at 1 µM; read-out: % inhibition
T29 construct: purchased Eurofins DiscoverX (KINOMEscan)
Method: as §1

[30] = biological target: T30, EPHA4 (Homo sapiens, UniProt P54764); conditions: 35 at 1 µM; read-out: % inhibition
T30 construct: purchased Eurofins DiscoverX (KINOMEscan)
T30 sequence (P54764 20-986): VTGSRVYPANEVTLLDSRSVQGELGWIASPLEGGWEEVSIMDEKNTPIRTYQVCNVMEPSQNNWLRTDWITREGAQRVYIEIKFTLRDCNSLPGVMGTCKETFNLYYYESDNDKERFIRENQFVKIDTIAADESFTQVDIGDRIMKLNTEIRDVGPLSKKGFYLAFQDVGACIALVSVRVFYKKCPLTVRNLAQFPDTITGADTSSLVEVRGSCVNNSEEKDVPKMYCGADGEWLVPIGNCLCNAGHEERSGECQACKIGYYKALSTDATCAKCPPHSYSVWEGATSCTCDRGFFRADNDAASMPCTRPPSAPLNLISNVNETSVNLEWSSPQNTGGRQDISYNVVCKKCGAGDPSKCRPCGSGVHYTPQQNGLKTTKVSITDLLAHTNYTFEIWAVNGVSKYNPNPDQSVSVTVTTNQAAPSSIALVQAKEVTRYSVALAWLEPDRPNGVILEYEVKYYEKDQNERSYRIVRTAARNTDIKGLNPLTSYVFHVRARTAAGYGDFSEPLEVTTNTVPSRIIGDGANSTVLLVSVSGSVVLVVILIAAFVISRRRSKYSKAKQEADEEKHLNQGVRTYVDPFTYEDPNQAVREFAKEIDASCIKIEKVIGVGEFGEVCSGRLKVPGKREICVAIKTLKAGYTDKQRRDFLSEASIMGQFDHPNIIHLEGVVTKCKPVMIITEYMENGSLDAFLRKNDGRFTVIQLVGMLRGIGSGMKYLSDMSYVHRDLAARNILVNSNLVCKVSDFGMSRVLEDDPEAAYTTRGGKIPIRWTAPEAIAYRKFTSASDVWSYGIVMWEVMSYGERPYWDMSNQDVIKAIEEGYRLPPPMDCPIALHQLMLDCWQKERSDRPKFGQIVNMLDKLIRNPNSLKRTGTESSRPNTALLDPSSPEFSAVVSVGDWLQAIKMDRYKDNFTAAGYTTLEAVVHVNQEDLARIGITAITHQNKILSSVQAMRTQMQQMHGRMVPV
Method: as §1

[31] = biological target: T31, PLK2 (Homo sapiens, UniProt Q9NYY3); conditions: 35 at 1 µM; read-out: % inhibition
T31 construct: purchased Eurofins DiscoverX (KINOMEscan)
Method: as §1

[32] = biological target: T32, CAMK4 (Homo sapiens, UniProt Q16566); conditions: 35 at 1 µM; read-out: % inhibition
T32 construct: purchased Eurofins DiscoverX (KINOMEscan)
Method: as §1

[33] = biological target: T33, EGFR(L747-E749del, A750P) (Homo sapiens, UniProt P00533, A750P/DEL747-749); conditions: 35 at 1 µM; read-out: % inhibition
T33 construct: purchased Eurofins DiscoverX (KINOMEscan)
Method: as §1

[34] = biological target: T34, SGK3 (Homo sapiens, UniProt Q96BR1); conditions: 35 at 1 µM; read-out: % inhibition
T34 construct: purchased Eurofins DiscoverX (KINOMEscan)
Method: as §1

[35] = biological target: T35, CDKL3 (Homo sapiens, UniProt Q8IVW4); conditions: 35 at 1 µM; read-out: % inhibition
T35 construct: purchased Eurofins DiscoverX (KINOMEscan)
Method: as §1

[36] = biological target: T36, RIPK2 (Homo sapiens, UniProt O43353)
T36 construct: purchased Eurofins DiscoverX (KINOMEscan)
T36 sequence (O43353 whole entry): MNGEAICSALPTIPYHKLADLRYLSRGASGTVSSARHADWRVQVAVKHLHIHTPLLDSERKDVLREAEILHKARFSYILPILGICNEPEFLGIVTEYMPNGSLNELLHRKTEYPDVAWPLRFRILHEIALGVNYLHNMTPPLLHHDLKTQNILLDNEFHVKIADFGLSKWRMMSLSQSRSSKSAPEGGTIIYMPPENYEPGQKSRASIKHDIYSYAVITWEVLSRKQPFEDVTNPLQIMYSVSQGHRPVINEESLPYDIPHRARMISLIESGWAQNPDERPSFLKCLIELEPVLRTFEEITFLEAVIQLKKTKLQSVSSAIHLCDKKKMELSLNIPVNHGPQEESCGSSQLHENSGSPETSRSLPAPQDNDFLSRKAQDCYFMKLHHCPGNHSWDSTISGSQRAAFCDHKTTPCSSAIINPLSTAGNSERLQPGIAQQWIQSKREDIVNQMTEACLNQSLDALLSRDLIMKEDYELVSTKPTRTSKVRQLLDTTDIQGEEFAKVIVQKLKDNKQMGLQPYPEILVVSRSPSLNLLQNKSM
Method: as §1

[37] = biological target: T37, RSK2(Kin.Dom.1-N-terminal) (Homo sapiens, UniProt P51812); conditions: 35 at 1 µM; read-out: % inhibition
T37 construct: RSK2(Kin.Dom.1-N-terminal); purchased Eurofins DiscoverX (KINOMEscan)
Method: as §1

[38] = biological target: T38, MAP3K3 (Homo sapiens, UniProt Q99759); conditions: 35 at 1 µM; read-out: % inhibition
T38 construct: purchased Eurofins DiscoverX (KINOMEscan)
Method: as §1

[39] = biological target: T39, TTK (Homo sapiens, UniProt P33981); conditions: 35 at 1 µM; read-out: % inhibition
T39 construct: purchased Eurofins DiscoverX (KINOMEscan)
Method: as §1

[40] = biological target: T40, MAP3K4 (Homo sapiens, UniProt Q9Y6R4); conditions: 35 at 1 µM; read-out: % inhibition
T40 construct: purchased Eurofins DiscoverX (KINOMEscan)
Method: as §1

[41] = biological target: T41, PHKG2 (Homo sapiens, UniProt P15735); conditions: 35 at 1 µM; read-out: % inhibition
T41 construct: purchased Eurofins DiscoverX (KINOMEscan)
T41 sequence (P15735 whole entry): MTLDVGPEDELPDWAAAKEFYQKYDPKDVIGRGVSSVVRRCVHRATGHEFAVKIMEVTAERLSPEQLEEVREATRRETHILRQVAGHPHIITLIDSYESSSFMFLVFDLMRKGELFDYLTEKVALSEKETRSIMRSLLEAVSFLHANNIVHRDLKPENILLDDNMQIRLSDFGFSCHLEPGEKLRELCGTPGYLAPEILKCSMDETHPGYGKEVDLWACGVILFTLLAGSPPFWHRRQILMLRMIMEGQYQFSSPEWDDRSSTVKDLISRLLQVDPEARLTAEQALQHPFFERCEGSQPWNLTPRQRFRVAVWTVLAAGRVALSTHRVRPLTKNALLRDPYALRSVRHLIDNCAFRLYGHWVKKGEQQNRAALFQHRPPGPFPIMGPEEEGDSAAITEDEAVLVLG
Method: as §1

[42] = biological target: T42, BMX (Homo sapiens, UniProt P51813); conditions: 35 at 1 µM; read-out: % inhibition
T42 construct: purchased Eurofins DiscoverX (KINOMEscan)
T42 sequence (P51813 whole entry): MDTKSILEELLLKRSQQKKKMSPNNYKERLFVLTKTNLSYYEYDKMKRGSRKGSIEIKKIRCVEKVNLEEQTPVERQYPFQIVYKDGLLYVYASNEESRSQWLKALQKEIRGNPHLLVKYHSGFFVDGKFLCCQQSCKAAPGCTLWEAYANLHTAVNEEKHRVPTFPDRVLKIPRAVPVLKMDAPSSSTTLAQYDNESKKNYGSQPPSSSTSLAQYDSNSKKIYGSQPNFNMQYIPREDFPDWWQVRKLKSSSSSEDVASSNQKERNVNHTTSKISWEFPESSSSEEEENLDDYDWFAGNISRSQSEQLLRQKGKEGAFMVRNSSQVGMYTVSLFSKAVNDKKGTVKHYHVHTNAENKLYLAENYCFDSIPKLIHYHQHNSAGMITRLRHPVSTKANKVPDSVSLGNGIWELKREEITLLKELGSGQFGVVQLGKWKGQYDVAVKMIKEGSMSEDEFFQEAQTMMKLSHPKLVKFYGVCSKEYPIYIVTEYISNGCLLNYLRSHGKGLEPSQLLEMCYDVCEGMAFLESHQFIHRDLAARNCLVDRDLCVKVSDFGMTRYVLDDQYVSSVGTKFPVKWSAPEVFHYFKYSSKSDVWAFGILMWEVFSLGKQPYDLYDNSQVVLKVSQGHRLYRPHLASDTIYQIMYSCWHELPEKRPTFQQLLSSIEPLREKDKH
Method: as §1

[43] = biological target: T43, ABL1(H396P)-phosphorylated (Homo sapiens, UniProt P00519, H396P); conditions: 35 at 1 µM; read-out: % inhibition
T43 construct: purchased Eurofins DiscoverX (KINOMEscan)
Method: as §1

T1 sequence (Q9UQ88 whole entry): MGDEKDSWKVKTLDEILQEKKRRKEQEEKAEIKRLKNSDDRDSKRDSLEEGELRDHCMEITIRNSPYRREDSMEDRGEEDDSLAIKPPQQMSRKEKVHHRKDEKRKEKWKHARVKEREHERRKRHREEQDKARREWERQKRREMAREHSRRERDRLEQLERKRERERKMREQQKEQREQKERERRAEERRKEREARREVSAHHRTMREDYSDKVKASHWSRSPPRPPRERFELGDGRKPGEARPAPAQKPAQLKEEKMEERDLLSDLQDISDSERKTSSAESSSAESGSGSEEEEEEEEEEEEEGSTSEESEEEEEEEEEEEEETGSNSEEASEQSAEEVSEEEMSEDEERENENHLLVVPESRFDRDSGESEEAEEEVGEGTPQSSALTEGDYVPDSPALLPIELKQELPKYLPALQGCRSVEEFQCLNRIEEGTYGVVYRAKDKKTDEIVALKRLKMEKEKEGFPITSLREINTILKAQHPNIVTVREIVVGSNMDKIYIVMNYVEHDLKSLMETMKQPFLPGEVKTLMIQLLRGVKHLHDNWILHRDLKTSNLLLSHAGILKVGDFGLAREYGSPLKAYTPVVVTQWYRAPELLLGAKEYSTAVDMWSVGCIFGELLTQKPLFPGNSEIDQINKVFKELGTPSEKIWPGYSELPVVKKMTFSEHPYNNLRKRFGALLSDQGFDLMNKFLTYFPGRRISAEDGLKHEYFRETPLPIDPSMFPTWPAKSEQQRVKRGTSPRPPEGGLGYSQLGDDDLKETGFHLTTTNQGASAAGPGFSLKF

## Brc1ccc2nccc(Nc3ccc4cn[nH]c4c3)c2c1 [Compound 35, 6-Bromo-N-(1H-indazol-6-yl)quinolin-4-amine]
[1]
  activity at 1 µM: 70%
[2]
  activity at 1 µM: 100%
[3]
  activity at 1 µM: 100%
[4]
  activity at 1 µM: 100%
[5]
  activity at 1 µM: 100%
[6]
  activity at 1 µM: 100%
[7]
  activity at 1 µM: 99%
[8]
  activity at 1 µM: 100%
[9]
  activity at 1 µM: 96%
[10]
  activity at 1 µM: 100%
[11]
  activity at 1 µM: 100%
[12]
  activity at 1 µM: 100%
[13]
  activity at 1 µM: 100%
[14]
  activity at 1 µM: 92%
[15]
  activity at 1 µM: 100%
[16]
  activity at 1 µM: 100%
[17]
  activity at 1 µM: 100%
[18]
  activity at 1 µM: 100%
[19]
  activity at 1 µM: 93%
[20]
  activity at 1 µM: 100%
[21]
  activity at 1 µM: 100%
[22]
  activity at 1 µM: 100%
[23]
  activity at 1 µM: 100%
[24]
  activity at 1 µM: 100%
[25]
  activity at 1 µM: 79%
[26]
  activity at 1 µM: 100%
[27]
  activity at 1 µM: 100%
[28]
  activity at 1 µM: 100%
[29]
  activity at 1 µM: 100%
[30]
  activity at 1 µM: 100%
[31]
  activity at 1 µM: 100%
[32]
  activity at 1 µM: 100%
[33]
  activity at 1 µM: 81%
[34]
  activity at 1 µM: 100%
[35]
  activity at 1 µM: 100%
[36]; 35 at 1 µM, read-out: % inhibition
  activity at 1 µM: 29%
[36]; KinomeScan, screened at 1 μM, read-out: kinases inhibited at 1 μM: RIPK2
  inhibition at 1 µM: 71%
[37]
  activity at 1 µM: 90%
[38]
  activity at 1 µM: 100%
[39]
  activity at 1 µM: 100%
[40]
  activity at 1 µM: 100%
[41]
  activity at 1 µM: 95%
[42]
  activity at 1 µM: 100%
[43]
  activity at 1 µM: 100%
